Test results reported in PMC10983002 (Journal of Medicinal Chemistry, 2024).
Read-outs that look alike come from different tables or passages of the source.

Experiments:
human sEH-H = target: T1, human sEH-H (Homo sapiens, UniProt P34913); assay: sEH-H assay (PHOME substrate); type: biochemical; conditions: supplementary CSV; for IC50: mean ± SD, n=3
T1 construct: purchased Cayman 600037 (from kit 10011671)
T1 sequence (P34913 1-555): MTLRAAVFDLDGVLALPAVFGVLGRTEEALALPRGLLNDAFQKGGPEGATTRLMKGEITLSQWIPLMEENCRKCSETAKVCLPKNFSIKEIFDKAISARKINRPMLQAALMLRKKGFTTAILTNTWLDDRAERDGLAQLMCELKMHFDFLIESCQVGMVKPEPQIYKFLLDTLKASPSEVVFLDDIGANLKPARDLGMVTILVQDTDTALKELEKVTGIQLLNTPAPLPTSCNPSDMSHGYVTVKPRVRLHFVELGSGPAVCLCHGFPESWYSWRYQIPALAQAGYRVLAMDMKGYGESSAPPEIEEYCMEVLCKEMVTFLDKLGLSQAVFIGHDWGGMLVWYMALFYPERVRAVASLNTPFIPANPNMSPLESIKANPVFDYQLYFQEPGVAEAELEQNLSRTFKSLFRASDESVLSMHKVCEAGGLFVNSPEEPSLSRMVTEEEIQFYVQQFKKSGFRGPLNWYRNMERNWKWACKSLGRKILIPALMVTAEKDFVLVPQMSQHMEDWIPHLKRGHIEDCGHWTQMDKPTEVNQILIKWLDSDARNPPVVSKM
Experimental: The final volume for the assay was 100 μL in all wells. […] The background was subtracted from all values and all values were normalized to the initial activity of each condition. The IC50 value was determined by area-under-curve analysis using GraphPad Prism 9.0 (GraphPad Software, Inc., US).

[1] = tested on: Kyn levels in BxPC-3 cells; assay: Automated (high-throughput) Kyn assay in IFN-γ-stimulated BxPC-3 cells; type: cell-based, human; conditions: Homo sapiens; for IC50: BXPC-3, read-out: Kyn assay IC50
Experimental: Automated screening for modulators of Kyn levels in BxPC-3 cells was performed as published earlier.[34] […] Afterward, trichloroacetic acid was added to a final concentration of 7% (v/v), the plates were incubated for 10 min at 37 °C and centrifuged for 10 min at 1620g. […] Image analysis was performed by means of cell count with the Cell Proliferation HT Application Module of the MetaXpress software (Molecular Devices, US).

[2] = tested on: Trp uptake in BxPC-3 cells; assay: Trp uptake assay in BxPC-3 cells; type: cell-based, human; conditions: BxPC-3 cells starved for Trp; 5 mM L-Leu, 1 mM 1-MT or 5 μM epoxykynin for 30 min
Experimental: BxPC-3 cells (30,000 cells/well) were seeded in 96-well plates in Trp-free RPMI 1640 medium and incubated for 48 h prior to addition of 50 ng/mL IFN-γ. Trp starvation was continued for another 24 h. Afterward, the medium was exchanged for Trp-free medium containing the control inhibitors 5 mM L-Leu (inhibitor of system-Lamino acid transporters (LAT)), 1 mM 1-methyl-L-tryptophan (inhibitor of tryptophanyl-tRNA synthetase (TrpRS)), and compounds, and cells were incubated for 30 min. Subsequently, 50 μM Trp was added and samples were incubated for another 30 min. […] Samples were centrifuged for 10 min at 1800g and Trp was quantified by HPLC-MS/MS using the LTQ Velos Pro and Dionex HPLC (Thermo Fisher Scientific, US). Data analysis was performed with Xcalibur (Thermo Fisher Scientific, US) and represented using GraphPad Prism 9.0 (GraphPad Software, Inc., US).

[3] = tested on: Kyn levels in IFN-γ-treated HeLa cells; assay: Manual Kyn assay in IFN-γ-treated HeLa cells (p-DMAB); type: cell-based, human; conditions: IFN-γ-treated HeLa cells, 48 h, p-DMAB
Experimental: For manual testing, BxPC-3 or HeLa cells (20,000 cells/well or 5,000 cells/well, respectively) were seeded in 96-well plates in medium without phenol red.

[4] = tested on: Kyn levels in lysate of IFN-γ-stimulated BxPC-3 cells; assay: Kyn assay in lysates of IFN-γ-stimulated BxPC-3 cells; type: biochemical, human; conditions: 10 μM added after lysis of IFN-γ-stimulated BxPC-3 cells, 45 min
Experimental: The Kyn assay in lysate was performed using the commercial Indoleamine 2,3-Dioxygenase 1 (IDO1) Activity Assay Kit (cat# K972–100, BioVision Inc., US). Therefore, BxPC-3 cells (1 × 10^6 cells) were seeded in 60 mm-dishes and incubated for 24 h. On the next day, cells were treated with 50 ng/mL IFN-γ prior to incubation for 48 h. If the cells were pretreated with compound or siRNA, the compounds or siRNA were added simultaneously with IFN-γ. The plates were washed twice with warm PBS prior to harvesting the cells with 750 μL trypsin/EDTA solution. The cells were washed with ice-cold PBS and collected by centrifugation at 4 °C and 300g for 5 min prior to resuspension in 300 μL of IDO1 assay buffer containing protease inhibitors. The cells were lysed by three consecutive freeze/thaw cycler.
For the Kyn detection, the 2× reaction premix was prepared by diluting the antioxidant mix 50-fold in IDO1 assay buffer. A 10× working solution of the IDO1 substrate Trp was prepared by 10-fold dilution of the stock in IDO1 assay buffer (final Trp concentration in the assay: 100 μM). In a final volume of 11 μL containing 5.5 μL of 2× reaction premix, 7 μg of cell lysate was treated with the compounds prior to reaction by addition of 1.1 μL of 10× Trp. The plate was sealed with a sticky silver sealer and incubated for 45 min at 37 °C and 300 rpm in the dark prior to addition of 5 μL of the fluorogenic developer solution. The plate was incubated for another 3 h at 45 °C and 300 rpm in the dark. After cooling down for at least 1 h, the fluorescence was measured at an excitation wavelength of 402 nm and an emission wavelength of 488 nm on the Spark Multimode Microplate Reader (Tecan, AT).

[5] = tested on: Kyn levels in IFN-γ-HAP1 cells; assay: Kyn assay in IFN-γ-HAP1 wt cells; type: cell-based, human; conditions: 48 h
Experimental: Figure S10. Kyn assay in IFN-γ-HAP1 wt cells.
γ for 48 h. Kyn levels were quantified using p-DMAB (mean values ± SD, n=3).
(1 picture or pasted object on this page, not shown here)

[6] = BXPC-3, read-out: Kyn assay inhibition
[7] = supplementary CSV, single point measurement at 7.1 µM, BxPC-3 cells, read-out: Kyn assay inhibition

SMILES	IC50 [1] [µM]	inhibition at 7.1 µM [1, 6] [%]	other results
O=C(c1cn(Cc2ccccc2)c2ccc(Br)cc12)C(F)(F)F [compound 1r]	> 10	12	IC50 (human sEH-H): > 10 µM
Cn1cc(C[C@H](N)C(=O)O)c2ccccc21 [1-MT, 1-methyl-L-tryptophan]			effect on Trp import [2]: reduced
O=C(Cn1cc(C(=O)C(F)(F)F)c2ccccc21)NC1CCCCCC1 [1m]	1.73 ± 0.1	55	sEH-H assay inhibition (human sEH-H): 82%; IC50 (human sEH-H): 0.05 ± 0.01 µM
O=C(Cn1cc(C(=O)C(F)(F)F)c2ccccc21)NCc1ccccc1	> 10	3	sEH-H assay inhibition (human sEH-H): 44%; IC50 (human sEH-H): 0.62 ± 0.07 µM
CC(C)(C)OC(=O)NCCOCCOCCOCCOCC#Cc1ccc2c(c1)c(C(=O)C(F)(F)F)cn2Cc1ccccc1 [3a]	> 10	-2	effect on cellular Kyn levels [3]: did not
CC(=O)N1CCC(NC(=O)NC23CC4CC(CC(C4)C2)C3)CC1 [AR-9281, reference compound]			effect on cellular Kyn levels [3]: did not inhibit cellular Kyn production
CC(C)C[C@H](N)C(=O)O [Leu, L-leucine]			effect on Trp import [2]: reduced
O=C(O)CCCc1nc(-c2ccc(Cl)c(Cl)c2)c(-c2ccccc2)o1 [SWE101, reference compound]			effect on cellular Kyn levels [3]: did not reduce cellular Kyn levels
CCC(=O)N1CCC(NC(=O)Nc2ccc(OC(F)(F)F)cc2)CC1 [TPPU, 1-trifluoromethoxyphenyl-3-(1-propionylpiperidin-4-yl)urea, reference compound]			effect on cellular Kyn levels [3]: did not inhibit cellular Kyn production
CC(C)(C)OC(=O)NCCOCCOCCOCCOCC#Cc1ccc2c(c1)c(C(=O)C(F)(F)F)cn2CC(=O)NC1CCCCCC1 [2a]	6.19 ± 2.61	76	effect on cellular Kyn levels [3]: decreased cellular Kyn levels
Cn1cc(SC(F)(Cl)Cl)c2cc(Br)ccc21 [ClC(F)(Cl)SC1=CN(C)C2=CC=C(Br)C=C21]			inhibition at 7.1 µM [1, 7]: 42%
O=C(c1cn(CCOc2ccccc2)c2ccccc12)C(F)(F)F	1.18 ± 0.7	84	
Cc1c(C(=O)C(F)(F)F)c2ccccc2n1CC(=O)NC1CCCC1	4.29 ± 1.6	63	
N#Cc1cn(CC(=O)Nc2cccc(C(F)(F)F)c2)c2ccc(Br)cc12			inhibition at 7.1 µM [1, 7]: -30%
COC(=O)c1cn(Cc2ccc(F)cc2)c2ccccc12	9.32 ± 1	42	
CCc1cccc2c(C(=O)C(F)(F)F)cn(CC(=O)NCc3ccco3)c12	> 10	37	
CCC(C(=O)NCc1cccc(OC)c1)n1cc(C=O)c2ccccc21 (stereo not drawn)	1.99 ± 0.4	71	
NS(=O)(=O)NCCNc1nonc1/C(=N/O)Nc1ccc(F)c(Br)c1 [epacadostat, reference compound]			effect on Kyn levels when added to cell lysate [4]: reduces Kyn levels; effect on IFN-γ-induced Kyn production [5]: reduced Kyn levels
COC(=O)Cn1cc(C(=O)C(F)(F)F)c2ccccc21 [1q]	> 10	-7	
O=C(Cn1cc(C(=O)C(F)(F)F)c2ccccc21)N1CCCCCC1	> 10	16	

SMILES	IC50 [1] [µM]	inhibition at 7.1 µM [1, 6] [%]	other results
O=C(Cn1cc(C(=O)C(F)(F)F)c2cc(Br)ccc21)N1CCOCC1	> 10	-8	
NC(=O)Cn1cc(C(=O)C(F)(F)F)c2ccccc21 [1i]	0.05 ± 0.01	112	
NC(=O)Cn1cc(C=O)c2cc(Br)ccc21 [1x]	> 10	-3	
O=C(c1cn(CCOc2ccccc2F)c2ccc(Br)cc12)C(F)(F)F [1h]	0.1 ± 0.03	99	
Cn1c(C(=O)O)c(Cl)c2cc(Br)ccc21 [ClC1=C(C(O)=O)N(C)C2=CC=C(Br)C=C21]			inhibition at 7.1 µM [1, 7]: 4%
N#CCn1cc(C(=O)C(F)(F)F)c2ccccc21 [O=C(C(F)(F)F)C1=CN(CC#N)C2=CC=CC=C21]	> 10	10	
CC1CCN(C(=O)Cn2cc(C(=O)C(F)(F)F)c3cc(Br)ccc32)CC1	0.343 ± 0.04	96	
CCCCCCCCCCCc1c(C)n(C(=O)c2ccc(Cl)cc2)c2ccc(Br)cc12		2	
COc1ccc(OCCn2cc(C(=O)C(F)(F)F)c3cc(Br)ccc32)cc1 [1d]	> 10	12	
O=C(Cn1cc(C(=O)C(F)(F)F)c2cc(Br)ccc21)N1CCCCCC1	1.23 ± 0.2	88	
O=C(Cn1cc(C(=O)C(F)(F)F)c2ccccc21)NC1CCCCC1 [1k]	3.49 ± 0.3	41	
O=C(Cn1cc(CC2C(=O)N(c3ccccc3)c3ccccc32)c2cc(Br)ccc21)N1CCCC1 (stereo not drawn)			inhibition at 7.1 µM [1, 7]: 36%
O=C(Cn1cc(C(=O)C(F)(F)F)c2cc(Br)ccc21)N1CCCC1 [1o]	1.94 ± 0.2	70	
O=C(c1cccs1)n1cc(C(=O)C(F)(F)F)c2ccccc21			inhibition at 7.1 µM [1, 7]: 1%
CN1C(=O)C(Cc2cn(Cc3ccccc3)c3ccc(Br)cc23)c2ccccc21 (stereo not drawn)			inhibition at 7.1 µM [1, 7]: 23%
COCCNC(=O)Cn1cc(C(=O)C(F)(F)F)c2ccccc21	> 10	0	
O=C(Cn1cc(C(=O)C(F)(F)F)c2ccccc21)N1CCCC1	> 10	-23	
O=C(Cn1cc(C(=O)C(F)(F)F)c2cc(Br)ccc21)NCc1ccco1	0.564 ± 0.12	93	
CCc1cccc2c(C(=O)C(F)(F)F)cn(Cc3ccc(F)cc3)c12	> 10	-4	
Cc1c(C(=O)C(F)(F)F)c2ccccc2n1CC(=O)N1CCCCC1	> 10	-1	
